# Experimental data: patent US20230257385A1, “SALT AND SOLID FORMS OF TABERNANTHALOG” (priority 2021, published 2023)
# Where two headings read alike, the source gives them in different places.
# Experiments:
# [1] = Equilibrium humidity evaluation 75% RH/40° C., 10 days (Example 8, Experiment 6); type: physicochemical
# Experimental: The experimental procedure that accompany this experiment is provided in Section G.ii.
# All forms were maintained under constant equilibrium humidity (75% RH). XRPD, DSC, TGA, PLM and ^1H NMR analyses were performed on the absorbents at t=5 d and t=10 d, to confirm their physical fates and to determine the extent of residual solvent exchange or sequestration.
# 100 mg portions of Tabernanthalog salts ([…]) were placed in the relevant open vials. The powders were finely divided and distributed evenly over the base of the vial, such that equal material coverage across the panel was observed. These samples were then maintained 40° C. under 75% RH. The samples were sub-sampled at intervals of 5 and 10 days and analyzed by ^1H NMR, HPLC, XRPD, DSC, TGA and PLM, for evidence of phase change or chemical degradation.
# [2] = Thermocycling of the monofumarate salt (Experiment Reference 9); type: physicochemical; conditions: for XRPD (moist pellet): form (pattern) of wet pellet after thermocycling; for crystal form change following dry: moist pellet vs oven dried pellet after thermocycling, ✓ / x; for XRPD crystallinity (oven dried): tabernanthalog monofumarate salt thermocycled between 20° C. and peak T (75% of solvent b.p.), solvent, input and number of cycles per sample reference
# Experimental: The tabernanthalog monofumarate salt (Pattern #1, 75 mg, 1 wt) was weighed out in to 4 separate vials and the corresponding solvents (750 μl, 10 vol) from Table 89 were charged.
# The suspensions underwent constant amplitude thermocycling at +0.5° C./min up to 75% of the relevant solvent b.p. and −0.5° C./min down to 20° C. The thermocycle was repeated 5 times for 9-A (Experiment Reference 9-Sample Reference A) to 9-D (Experiment Reference 9-Sample Reference D) prior to working up the samples, analyzed the by XRPD (wet and dry). 9-E (Experiment Reference 9-Sample Reference E) and 9-F (Experiment Reference 9-Sample Reference F) were subjected to 10 cycles and 9-G (Experiment Reference 9-Sample Reference G) to 35 cycles.
# Thermocycling in different solvents can promote the formation of alternative polymorphic forms. The tabernanthalog monofumarate salt (Pattern #1), was heated and cooled between 20° C. and 75% of the relevant solvent b.p. at 0.5° C./minute, for 5 consecutive cycles; a 10-minute dwell was incorporated at each inflection. Thermocycling is ripening technique, that encourages particle size enlargement and promotes the evolution of the API into a stable phase. […] The products were analyzed both wet and dry to determine if form changes had occurred, all products were consistent with previously encountered patterns, and by DSC none of the products were single phase.
# [3] = cited from earlier work
# [4] = Stability examination of supplied monofumarate material at 40° C./75% RH (Example 5, Experiment Reference 2); type: physicochemical
# [5] = counter ion (acid), theoretical pKa value
compound,measurement,setting,value
COc1ccc2c3c([nH]c2c1)CCN(C)CC3.O=C(O)c1ccccc1 [Sample 6-C1],"Tabernanthalog RRT = 1.00 (trended HPLC data, chemical purity)","[1]; Benzoate salt, t = 5 d at 75% RH at 40° C.",98.36
COc1ccc2c3c([nH]c2c1)CCN(C)CC3.O=C(O)/C=C/C(=O)O [Pattern 9-F],XRPD (moist pellet),[2],Pattern #2c
same,crystal form change following dry,[2],✓
same,XRPD crystallinity (oven dried),[2],82.3%
COc1ccc2c3c([nH]c2c1)CCN(C)CC3.O=C(O)C(O)C(O)C(=O)O [Sample 6-B1],"Tabernanthalog RRT = 1.00 (trended HPLC data, chemical purity)","[1]; Tartrate salt, t = 5 d at 75% RH at 40° C.",98.86
Br [Hydrobromic acid],pKa1,[3]; counter ion of the salt screen,−9.00
COc1ccc2c3c([nH]c2c1)CCN(C)CC3.O=C(O)/C=C/C(=O)O [Pattern 9-B],XRPD (moist pellet),[2],Pattern #1
same,XRPD crystallinity (oven dried),[2],73.6%
(−)-L-Malic acid,pKa1,[3]; [5],3.5
same,pKa2,[3]; [5],5.1
same,pKa1,[3]; counter ion of the salt screen,3.50
same,pKa2,[3]; counter ion of the salt screen,5.10
COc1ccc2c3c([nH]c2c1)CCN(C)CC3.O=C(O)/C=C/C(=O)O [Pattern 9-D],XRPD (moist pellet),[2],Pattern #3
same,XRPD crystallinity (oven dried),[2],74.5%
COc1ccc2c3c([nH]c2c1)CCN(C)CC3.O=C(O)/C=C/C(=O)O [8-A4 of Example 5],"Tabernanthalog RRT = 1.00 (trended HPLC data, chemical purity)","[1]; Fumarate salt, input before humidity exposure",99.04
COc1ccc2c3c([nH]c2c1)CCN(C)CC3.O=C(O)/C=C/C(=O)O [Pattern 9-C],XRPD (moist pellet),[2],Pattern #8
same,XRPD crystallinity (oven dried),[2],72.8%
COc1ccc2c3c([nH]c2c1)CCN(C)CC3.O=C(O)/C=C/C(=O)O [Pattern 9-A],XRPD (moist pellet),[2],Incoherent
same,crystal form change following dry,[2],✓
same,XRPD crystallinity (oven dried),[2],82.1%
O=C[C@H](O)[C@@H](O)[C@H](O)[C@H](O)C(=O)O [D-Glucuronic acid],pKa1,[3]; [5],3.2
same,pKa1,[3]; counter ion of the salt screen,3.20
"O=S(=O)(O)CCS(=O)(=O)O [Ethane-1,2-disulfonic acid]",pKa1,[3]; counter ion of the salt screen,−2.10
same,pKa2,[3]; counter ion of the salt screen,−1.50
COc1ccc2c3c([nH]c2c1)CCN(C)CC3.O=C(O)/C=C/C(=O)O [Tabernanthalog fumarate (CAT8931)],HPLC (% area),"[4]; 2-A, open-necked, wide vial at 75% RH/40° C., t = 2 w",97.26 % area
same,HPLC (% area),"[4]; 2-A, open-necked, wide vial at 75% RH/40° C., t = 3 w",97.01 % area
same,HPLC (% area),"[4]; 2-A, open-necked, wide vial at 75% RH/40° C., t = 4 w",97.98 % area
same,HPLC (% area),"[4]; 2-A, open-necked, wide vial at 75% RH/40° C., t = 5 w",97.34 % area
same,HPLC (% area),"[4]; 2-B, sealed PK0056 electrostatic bags at 75% RH/40° C., t = 2 w",97.44 % area
same,HPLC (% area),"[4]; 2-B, sealed PK0056 electrostatic bags at 75% RH/40° C., t = 3 w",97.02 % area
same,HPLC (% area),"[4]; 2-B, sealed PK0056 electrostatic bags at 75% RH/40° C., t = 4 w",98.38 % area
same,HPLC (% area),"[4]; 2-B, sealed PK0056 electrostatic bags at 75% RH/40° C., t = 5 w",97.54 % area
same,HPLC (% area),"[4]; input batch, before exposure",97.64 % area
O=C(O)CO [Glycolic acid],pKa1,[3]; [5],3.3
same,pKa1,[3]; counter ion of the salt screen,3.30
